Results reported in patent US6723716B1, “7-acylamino-3-heteroarylthio-3-cephem carboxylic acid antibiotics and prodrugs thereof” (Essential Therapeutics, Inc., priority 1999, dated 2004).

Assays:
S. aureus ATCC29213 = assay: Human serum binding effect: MIC with and without human serum; assay type: cell-based, Staphylococcus aureus; conditions: 1:1 human serum:MHB
Procedure: The approximate measurement of the degree of binding of the compound to human serum proteins can be achieved by determination of the effect of the addition of human serum to the medium in which the MIC values against a selected bacterial strain is determined. The ratio of the MIC value obtained in presence of added human serum to the MIC value determined without serum addition was used as a measure of serum binding and the results of such determination are presented below in Table 2.
In addition to the standard MIC determination described above, the staphylococcal strain ATCC29213 is also tested in a ratio 1:1, human serum:MHB to obtain a preliminary estimate of the bioactivity of test compounds in serum: The assay was performed in Human Serum and Mueller-Hinton Broth (HSMHB) with a final bacterial inoculum of 1×10^6 CFU/mL (from an early-log phase culture) and a final volume of 100 μL. Control drugs, including imipenem, vancomycin, dicloxacillin, and new compounds were prepared in double-concentrated Mueller-Hinton broth at a concentration equivalent to 4-fold the desired final concentration. Dilution of compounds were prepared directly in the plates by serial 2-fold dilution in double-concentrated Mueller-Hinton using a multichannel pipette. Positive and negative growth controls were included in each plate. […] The inoculum was prepared by diluting the early log-phase (1 h) culture 1:100 with fresh double-concentrated Mueller-Hinton broth. A volume of 25 μL of the inoculum was added to each well. […] The exact inoculum was determined by applying 10 μl of 10-fold serial dilution of the bacterial suspension on TSA. After overnight incubation at 35° C., colony forming units were manually counted.

human serum proteins = assay: Serum binding determination by ultrafiltration/HPLC; assay type: in vitro ADME; conditions: by HPLC
Procedure: (§1) The more accurate measurement of binding of selected cephalosporin compounds was performed using HPLC as described below.
(§2) 1. Serum is placed in a shaking water bath preheated to 37±2° C. for 5 to 10 minutes to heat serum to 37° C. Serum pH is measured and recorded, while serum is 37° C. using pH paper. Measurements are taken twice, 3 minutes apart. If the pH is not 7.4±0.4 then the pH is adjusted by blowing 5% CO2/95% O2 over the serum. After blowing for several minutes, serum is heated to 37° C. and measurements are taken twice, 3 minutes apart using pH paper to determine the pH. Store at 4° C. The serum is stable for 7 days. Always check the pH before each use.
(§3) 2. Before any centrifugation, the centrifuge temperature must be adjusted to 25±2° C. Preheat the centrifuge by spinning for 45 minutes at the same speed to be used in the assay (1900 g) with two tubes of water in the rotor and the temperature set to 25° C. When the centrifuge stops immediately check the temperature of the tubes of water with a calibrated thermometer. The temperature of the tubes of water must be 25±2° C. […] Continue spinning and measuring the temperature and adjusting the setting until the temperature is 25±2° C.
(§4) 3. Prepare blank ultrafiltrate by pipetting blank pH 7.4 serum into an Amicon Centrifree Micropartition devices, centrifuge: fixed angle rotor, 1900 g, 25° C. for 20 minutes. Heat ultrafiltrate in a shaking water bath preheated to 37° C. Measure ultrafiltrate pH and adjust to the pH of the serum (7.4±0.2).
(§5) 4. Pipette 190 ul of blank ultrafiltrate into a set of labeled 1.7 mL polypropylene microfuge tubes for 3 of each level. Pipette 10 μL of the appropriate standard stock 50, 200, 1000 μg/mL to make standards 2.5, 10, and 50 μg/mL respectively. Vortex each tube well. One set of the standard samples are mixed 1:1 with 0.2 M acetic acid and injected onto the HPLC (MSTD). These samples are the membrane standards and will be used to compare to the other standards. Pipette 190 ul of ultrafiltrate and spike with 10 ul of whatever solution (e.g. water) the standards are prepared in to make the zero standard.
(§6) 5. Pipette 475 μL of blank heated pH 7.4 serum into a set of labeled 1.7 mL polypropylene microfuge tubes for 2 of each (Serum A and Serum B). Pipette 25 μL of the 1000 μg/mL standard stock into each tube, vortex each tube well to make serum standard 50 μg/mL. Remove 100 μL of serum and deproteinate with 200 μL 4% TCA while vortexing to make serum time 0 (serum 50, T0). Place serum tubes in a shaking water bath at 37° C. for 10 minutes. Pipet 100 μL of serum out and deproteinate with 200 μL 4% TCA, to make serum time 10 min (serum 50, T10). Pipet 200 ul serum standard 50 μg/mL into an ultrafiltration device, which is not treated with TCA, to determine free drug in samples (Rat Serum 50).
(§7) 6. Transfer serum and standard samples to labeled Amicon Centrifree Micropartition filters, and centrifuge: 1900 g, 25° C. for 10 minutes. The extracted serum samples (T0 and T10) are spun down and supernatant is loaded into HPLC vials.
(§8) 7. 100 μL of ultrafiltrate sample and 100 μL of 0.2 M acetic acid were mixed together to stabilize the compound in ultrafiltrate.
(§9) 8. Transfer entire stabilized ultrafiltrate solution to a labeled autoinjector HPLC vial cap with Teflon septa, and inject on HPLC.
(§10) Peak height or area is used in a weighted linear regression.

[1] = test system: S. aureus ATCC 13709 (Smith diffuse); assay: Murine lethal bacteremic peritonitis (septicemia) efficacy; assay type: in vivo, mice
Procedure: 10 mice/group were injected intraperitoneally with 2.98×10^7 cfu S. aureus ATCC 13709 (Smith diffuse) and treated at 0 and 2 hrs post-challenge with serial two-fold doses of new cephalosporin antibiotic, imipenem and vancomycin subcutaneously in order to determine the ED50. Male Swiss-Webster mice weighing originally 24.2-26.1 g were obtained from Charles Rivers Labs, Hollister, Calif. Mice were housed 10 per cage and given free access to water and mouse chow.
Staphylococcus aureus ATCC 13709 (Smith diffuse) was grown overnight at 37° C. in Brain-heart Infusion broth (BHIB). The following morning, it was subcultured to fresh BHIB and incubated for 4-5 h at 37° C. The log-phase growth cells were washed once with physiological saline and adjusted to the desired concentration by correlation of absorbency at OD 600 nm with predetermined plate counts (NCCLS, 1994). The cell suspension was mixed with an equal volume of sterile 14% hog-gastric mucin (2). Inoculum was kept in an ice bath until used (<1 h).
Mice were challenged via an injection of 0.5 mL bacterial suspension intraperitoneally. The bacterial challenge was 2.98×10^7 cfu/mouse.
Imipenem (Primaxin IV; Lot 7294A), vancomycin (Vancocin; Lot 8MU60W), and new cephalosporin antibiotic were prepared by serial two-fold dilutions to concentrations of 0.078-0.005 mg/mL, 1.2-0.075 mg/mL, 0.3-0.02 mg/mL, 0.3-0.02 mg/mL and 0.3-0.02 mg/mL respectively in sterile water (1). All antibiotics were administered subcutaneously in 0.1 mL volumes at 0 and 2 hours post-challenge. Concentrations of all compounds are based on the weight of the bioactive ingredients.
The 50% effective dose (ED50) was calculated by the probit method (3) utilizing a program entitled Probit (Nycomed-Salutar).

[2] = In vitro stability of compounds in rat serum; assay type: in vitro ADME
Procedure: In general, compounds from the class of 7-acylamino-3-heteroarylthio-3-cephem carboxylic acids have higher chemical reactivity and lower stability towards chemical or enzymatic decomposition than most typical cephalosporins. […] Results shown in Table 2 represent percentage loss of the initial amount of cephalosporin compound upon 60 min incubation in rat serum.
Procedure for measuring degree of degradation of cephalosporin compounds in rat serum was as follows:
Fresh control rat serum (heparinized and stored frozen) is preincubated at 37° C. for 15 min in a shaking water bath. pH is measured using test strips. 25 μL of a 2 mg/mL solution cephalosporin compound (in water) of is then added to each matrix to make 1000 μL. Solutions were incubated at 37° C. 100 ul of solution was taken out at time=0, 15, 30, and 60 min post dose and added 200 μL 4% trichloroacetic acid, vortexed, and centrifuged for 10 min at 14,000 rpm in an Eppendorf microcentrifuge. 25 μL of each supernatant was injected onto HPLC. Experiment was repeated using 25 μL of a 0.2 mg/mL cephalosporin compound. Degradation is measured as the percentage of HPLC peak area at time t relative to peak area at time 0.
HPLC conditions: Beckman Ultrasphere C18 column. 5 u. 4.6 mm×25 cm. 1 mL/min of 95% 0.1 M ammonium acetate, pH 6, 5% ACN going to 75% buffer/organic over 20 min. UV monitored at 254 and 280 nm.

rhesus serum proteins = assay: Serum binding determination by ultrafiltration/HPLC; assay type: in vitro ADME; conditions: by HPLC
Procedure: as §1, §2, §3, §4, §5, §6, §7, §8, §9, §10

rat serum proteins = assay: as above; assay type: in vitro ADME; conditions: by HPLC
Procedure: as §1, §2, §3, §4, §5, §6, §7, §8, §9, §10

[3] = Staphylococcus aureus, ATCC13709, sc, read-out: Efficacy in murine septicemia % survival

Row | SMILES | Human serum binding effect (ratio of MIC value determined with and without human serum added) (S. aureus ATCC29213) | Serum Binding human (% of compound bound to serum) (human serum proteins) | responders at 0.625 mg/kg [1, 3] | responders at 1.25 mg/kg [1, 3] | responders at 2.5 mg/kg [1, 3] | Efficacy in murine septicemia % survival ([1]; dose 5 mg/kg s.c. at 0 and 2 h post-challenge) | stability of compounds in rat serum ([2]; Table 2 data) | Stability in rat serum (% loss) ([2]; after 60 min exposure to rat serum, 37° C., HPLC) | Serum Binding rhesus (% of compound bound to serum) (rhesus serum proteins) | Serum Binding rat (% of compound bound to serum) (rat serum proteins)
1 | CN[C@H](CC(C)C)C(=O)N[C@H]1C(=O)N[C@@H](CC(N)=O)C(=O)N[C@H]2C(=O)N[C@H]3C(=O)N[C@H](C(=O)N[C@H](C(=O)O)c4cc(O)cc(O)c4-c4cc3ccc4O)[C@H](O)c3ccc(c(Cl)c3)Oc3cc2cc(c3O[C@@H]2O[C@H](CO)[C@@H](O)[C@H](O)[C@H]2O[C@H]2C[C@](C)(N)[C@H](O)[C@H](C)O2)Oc2ccc(cc2Cl)[C@H]1O [Van., Vancomycin, reference compound] | 2 | 55% | 10% | 20% | 60% | 5/100% |  |  |  | 
2 | N=C(N)NCCSCc1ncccc1SC1=C(C(=O)O)N2C(=O)[C@@H](NC(=O)/C(=N\O)c3nc(N)sc3Cl)[C@H]2SC1 [Cmpd 15, (7R)-7-[(Z)-2-(2-amino-5-chlorothiazol-4-yl)-2-(hydroxyimino)acetamido]-3-[2-(2-guanidinoethylthiomethyl)pyrid-3-ylthio]-3-cephem-4-carboxylic acid] | 2 | 83% |  |  |  |  | improved stability | 38% | 88% | 76%
